Series [1] is described as follows: Pharmacokinetics in mice plasma following intravenous administration. Type of series: in vivo, CD-1 mice. The following applies: male, CD-1, mouse; for half-life: read-out: T½ (converted); for Vd: read-out: Vss. The method, then: (§1) Pharmacokinetic studies of the compounds were carried out on CD-1 mice, males, aged about 8 weeks, weighing 16-29 g. The animals were given a single oral (PO) administration (intragastrically) at a dose of 10 mg/kg in a formulation in the form of a 0.2% solution of hydroxypropyl methylcellulose (HPMC) in a 5% aqueous solution of glucose and a single IV-bolus administration (intravenously) at a dose of 1.0 mg/kg for 1277 and at a dose of 2.0 mg/kg for substances CDK7_1187, CDK7_1225, CDK7_1229 and CDK7_1276 in a formulation comprising 0.2% DMSO in 5% aqueous solution of glucose.
(§2) For each substance, 21-30 animals were used for each dose of PO and IV administration. All mice were weighed and randomized before dosing.
(§3) 3-5 animals were used for each time point. Each animal was sampled at one time point. At least 12 h before the start of the experiment, the animals were deprived of food while maintaining free access to water.
(§4) Animals from the PO and IV groups were subjected to blood sampling before administering the substance and after 0.5, 2, 4, 8, 12 and 24 h.
(§5) Blood was collected by cardiac puncture using the closed method. Blood was collected in a volume of 0.2 ml into polypropylene tubes comprising 20 μl of 5% EDTA. Blood plasma was separated by centrifugation at 10000 rpm for 10 minutes at 4±2° C. and transferred into clean labeled tubes.
(§6) Test blood plasma samples of mice from the experimental groups were obtained in a volume of 50 μl. Afterwards, […] of a solution of internal standard (tolbutamide (Sigma, T0891)) prepared in acetonitrile, at a concentration of 50 ng/ml, pre-cooled in the refrigerator at 2-8° C., was added to the samples, stirred in a vortex mixer (G560E, Scientific Industries) for 10 seconds and incubated at 4° C. for 15 minutes for protein precipitation. Samples were then centrifuged (5417R centrifuge, Eppendorf) at 1500 g for 10 minutes while cooling to 4° C. 150 μl of the supernatant were transferred to a 96-well plate for HPLC-MS/MS analysis. Quantitative determination of test compounds in blood plasma was carried out by absolute calibration method. The calibration curve was generated by analyzing plasma samples with supplementations of known amounts of the standard of the compound being determined. The lower limit of the quantitative determination of test compounds in blood plasma was 1 ng/ml, the analytical range of the technique was 1 ng/ml to 2000 ng/ml. The technique was partially validated in terms of selectivity, accuracy, precision, linearity, matrix effects, stability.
(§7) The Qtrap 5500 mass spectrometer (AB Sciex) in combination with the Agilent 1290 Infinity II HPLC liquid chromatograph (Agilent) and a cooling multisampler (Agilent 1290 Infinity II Multisampler G7167B) was used as an HPLC-MS/MS system. Chromatographic analysis was performed on a C18 reversed-phase HPLC column (YMC-Triart C18, 50*2 mm, 1.9 μm, YMC CO. Ltd). The mobile phase used was used a mixture of deionized water and acetonitrile supplemented with 0.1% formic acid in gradient mode, flow rate: 0.5 ml/min, column T=40° C., autosampler T=8° C., analysis time: 2.8 min. Mass spectrometric detection was performed in multiple reaction monitoring (MRM) mode. Precursor ions, fragment ions and collision energies for each substance were selected experimentally. Two Q1/Q3 transitions were used to record MRM chromatograms of the analyte and internal standard; one of transitions was used for quantitative calculations, the other one was used to confirm that the […] corresponds to a given substance. Based on the results of HPLC-MS/MS analysis of calibration samples using the Analyst 1.6.3 software, the calibration dependence of areas of chromatographic analyte peaks normalized to the signal of the internal standard on the concentration of the analyte was built.
(§8) Pharmacokinetic analysis was performed by non-compartmental method using the Phoenix WinNonlin 6.3 software package. […]

Series [2] in a line: Pharmacokinetics in mice plasma following oral administration. The following applies: dose 10 mg/kg; for F: absolute bioavailability, mice; for AUC(0-t) / Cmax / Tmax / half-life: male, CD-1, mouse, mice plasma; for half-life: read-out: T½ (converted). Type of series: in vivo, CD-1 mice. The method, then:
as §1, §2, §3, §4, §5, §6, §7, §8

The subject of series [3] is NCI-H69 xenografts (small cell lung cancer). Kind of series: Antitumor activity in vivo, subcutaneous NCI-H69 xenograft model. Also noted: species or system BALB/c Nude mice. The procedure: The antitumor activity of CDK7_1187 in vivo was evaluated on a subcutaneous xenograft model of the NCl-H69 line (small cell lung cancer, ATCC® HTB-119™) transplanted to BALB/c Nude mice.
NCl-H69 cell line was cultured in RPMI-1640 medium (PanEco, Russia) with enrichment of the basal growth medium with L-glutamine at a concentration of 2 mM (PanEco, Russia) and 10% fetal bovine serum (Gibco, Thermo Fisher Scientific, USA).
The study used 20 BALB/c Nude mice (females) obtained from the Federal State Budgetary Scientific Institution “Federal Research Center Institute of Cytology and Genetics, Siberian Branch of Russian Academy of Sciences” (ICG SB RAS). BALB/c Nude mice were subcutaneously administered into the right lateral side of the body with […] of suspension containing 5×10^6 NCI-H69 tumor cells and Matrigel (Corning® Matrigel® Basement Membrane Matrix) at 1:1 ratio.
Linear dimensions of the tumor were determined using an electronic caliper. Volume of the tumor node was determined by the formula (1):
[formula] • where L and W are large and small diameters of the tumor node, respectively.
The efficacy of test product was measured by the index of tumor growth inhibition (TGI, %) calculated according to the formula (2):
[formula] • where Vc and Vp are mean volumes of the tumor node in the control group and the group of animals that received the test substance, respectively.
After achieving an average tumor volume of 130 mm^3, animals were divided into 2 groups of 10 animals, volume of the tumor node was used as a randomization criterion. The day of the first administration of the product was designated as day 0.
Test substance CDK7_1187 was administered intragastrically at a dose of 6 mg/kg daily, for 21 days. Before each administration, CDK7_1187 was diluted in 5% solution of glucose (Solopharm, Russia) and 0.1% solution of DMSO (Sigma, USA). The control group received a 5% solution of glucose and a 0.1% solution of DMSO in an analogous volume.
Statistical analysis was carried out using the GraphPad Prism 9 software package. Mann-Whitney U test was employed to assess the significance of differences when comparing the volumes of tumor nodes. Differences were identified as significant if p<0.05.

Read-outs that look alike come from different tables or passages of the source.

By AUC(0-t) is commonly meant the area under the concentration-time curve up to a stated or last time point. One may read the clearance as the volume of plasma or blood freed of the substance per unit of time. Broadly, the Cmax is the maximum level reached in the sampled fluid or tissue. In general, Tmax refers to the time at which the peak concentration occurs.

Regarding `CC(C)N1CCCc2c(-c3nc(N[C@H]4CCC(C)(C)NC4)ncc3C(F)(F)F)c[nH]c2C1=O` [CDK7_1229, 3-(2-{[(3S)-6,6-dimethylpiperidin-3-yl]amino}-5-(trifluoromethyl)py-rimidin-4-yl)-7-(propan-2-yl)-1H,4H,5H,6H,7H, 8H-pyrrolo[2,3-c]azepin-8-one], in series [1] (dose 2 mg/kg), the AUC(0-t) is 1140 ng·h/mL, the clearance was 29 mL/min/kg, the half-life is 2 h and the Vd came out at 4.17 L/kg. Further, in series [2], the F is listed as 102%, the AUC(0-t) came out at 5790 ng·h/mL, the Cmax was 1070 ng/mL and the Tmax is 0.5 h. In addition, in series [2], the half-life is 2.5 h.
As for `CC(C)N1CCCc2c(-c3nc(N[C@H]4CCC5(CC5)NC4)ncc3C(F)(F)F)c[nH]c2C1=O` [CDK7_1277, 3-(2-{[(6S)-4-azaspiro[2.5]octan-6-yl]amino}-5-(trifluoromethyl)py-rimidin-4-yl)-7-(propan-2-yl)-1H,4H,5H,6H,7H, 8H-pyrrolo[2,3-c]azepin-8-one], in series [1] (dose 1 mg/kg), the AUC(0-t) was determined as 363 ng·h/mL, the clearance was 45 mL/min/kg, the half-life is 2.1 h and the Vd stood at 6.89 L/kg. In series [2], the F turned out to be 85.8%, the AUC(0-t) was determined as 3110 ng·h/mL, the Cmax was determined as 893 ng/mL and the Tmax came to 0.5 h. Also, the half-life in series [2] is 3.8 h.
In the case of `O=C1c2[nH]cc(-c3nc(N[C@H]4CCC5(CC5)NC4)ncc3C(F)(F)F)c2CCCN1C1CC1` [CDK7_1276, 3-(2-{[(6S)-4-azaspiro[2.5]octan-6-yl]amino}-5-(trifluoromethyl)py-rimidin-4-yl)-7-cyclopropyl-1H,4H,5H,6H,7H, 8H-pyrrolo[2,3-c]azepin-8-one], in series [1] (dose 2 mg/kg), the AUC(0-t) was determined as 1380 ng·h/mL, the clearance was 21.5 mL/min/kg, the half-life is 4.15 h and the Vd was determined as 6.52 L/kg. In series [2], the F was 116%, the AUC(0-t) turned out to be 7980 ng·h/mL, the Cmax was 1510 ng/mL and the Tmax amounted to 0.5 h. In addition, in series [2], the half-life was 2 h.
Consider `CN1CCCc2c(-c3nc(N[C@H]4CCC(C)(C)NC4)ncc3C(F)(F)F)c[nH]c2C1=O` [CDK7_1187, 3-(2-{[(3S)-6,6-dimethylpiperidin-3-yl]amino}-5-(trifluoromethyl)py-rimidin-4-yl)-7-methyl-1H,4H,5H,6H,7H, 8H-pyrrolo[2,3-c]azepin-8-one], for which, in series [1] (dose 2 mg/kg), the AUC(0-t) stood at 314 ng·h/mL, the clearance is 103 mL/min/kg, the half-life is 1.7 h and the Vd is 10.1 L/kg. Moreover, in series [2], the F came to 72.7%, the AUC(0-t) stood at 1160 ng·h/mL, the Cmax was 309 ng/mL and the Tmax is 0.5 h. Also, the half-life in series [2] was 1.7 h. Besides, the “tumor volume versus control group” value in series [3] (6 mg/kg daily, days 17 and 21, Mann-Whitney p<0.05) is given as “statistically significantly less”. Moreover, the “index of tumor growth inhibition (TGI)” value in series [3] (BALB/c Nude mice, 6 mg/kg intragastrically daily for 21 days, end of the observation period) is listed as 48%. For the same molecule, the TGI index in series [3] (Day 9, intragastrically 6 mg/kg daily) came out at 10%. In addition, the TGI index in series [3] (Day 13, intragastrically 6 mg/kg daily) was found to be 36%. The same molecule returned a TGI index in series [3] (Day 17, intragastrically 6 mg/kg daily) of 40%. The same molecule gave a TGI index in series [3] (Day 21, intragastrically 6 mg/kg daily) of 48%.
As for `CC1(C)CC[C@H](Nc2ncc(C(F)(F)F)c(-c3c[nH]c4c3CCCN(C3CC3)C4=O)n2)CN1` [CDK7_1225, 7-cyclopropyl-3-(2-{[(3S)-6,6-dimethylpiperidin-3-yl]amino}-5-(trifluoromethyl)py-rimidin-4-yl)-1H,4H,5H,6H,7H, 8H-pyrrolo[2,3-c]azepin-8-one], in series [1] (dose 2 mg/kg), the AUC(0-t) came to 691 ng·h/mL, the clearance is 48 mL/min/kg, the half-life is 1.8 h and the Vd was found to be 6.3 L/kg. In series [2], the F turned out to be 102%, the AUC(0-t) stood at 3540 ng·h/mL, the Cmax turned out to be 712 ng/mL and the Tmax was 2 h. For the same molecule, in series [2], the half-life was 1.9 h.

The values above are taken from patent US20260137698A1, “CYCLIN-DEPENDENT KINASE 7 INHIBITORS” (JOINT STOCK COMPANY «BIOCAD», priority 2022, published 2026).
